Source: ChEMBL document CHEMBL1201862, “PubChem BioAssay data set” (2004)
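Grown in 96-well plates, cells were treated for 48 hours with each compound at five concentrations. Insufficient inhibition: endpoint recorded as highest concentration tested. GI50 is the concentration that inhibits growth by half.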 Activity calls are given as the source filed them. Rule as the data show it: active = GI50 up to about 1.1 µM and inactive = higher.

How the values were obtained:
Assay in all cases: NCI-60 cell line screen, 48 h
[1] = system: KM12
[2] = system: SR
[3] = system: NCI-H23
[4] = system: UACC-62
[5] = system: COLO 205
[6] = system: A549
[7] = system: A498
[8] = system: UO-31
[9] = system: MDA-MB-435
[10] = system: HOP-62
[11] = system: SK-MEL-5
[12] = system: M14
[13] = system: PC-3
[14] = system: HL-60
[15] = system: HCC 2998
[16] = system: SF-268
[17] = system: EKVX
[18] = system: RXF 393
[19] = system: NCI-H460
[20] = system: RPMI-8226

SMILES	GI50 [1]	GI50 [2]	GI50 [3]	GI50 [4]	GI50 [5]	GI50 [6]	GI50 [7]	GI50 [8]	GI50 [9]	GI50 [10]	GI50 [11]	GI50 [12]	GI50 [13]	GI50 [14]	GI50 [15]	GI50 [16]	GI50 [17]	GI50 [18]	GI50 [19]	GI50 [20]
CC[C@]12C=CCN3CC[C@@]4(c5cc(N=O)c(OC)cc5N(C)[C@H]4[C@@](O)(C(=O)OC)[C@@H]1OC(C)=O)[C@@H]32	90.8 µM (inactive)	47.8 µM (inactive)	> 100 µM (inactive)	51.4 µM (inactive)	38.2 µM (inactive)	58.9 µM (inactive)	> 100 µM (inactive)	> 100 µM (inactive)	25.1 µM (inactive)	61 µM (inactive)	37.9 µM (inactive)	89.5 µM (inactive)	40.8 µM (inactive)	37.8 µM (inactive)	> 100 µM (inactive)	> 100 µM (inactive)	> 100 µM (inactive)	44.1 µM (inactive)	92.3 µM (inactive)	
CC(C)C(OC(=O)c1ccc(NCc2cc(O)ccc2O)cc1)C(C)C	2.6 µM (inactive)	0.617 µM (active)	1.89 µM (inactive)	1.29 µM (inactive)	0.865 µM (active)	5.77 µM (inactive)	2.25 µM (inactive)	1.17 µM (inactive)	1.29 µM (inactive)	7.94 µM (inactive)	2.2 µM (inactive)	2.28 µM (inactive)	1.32 µM (inactive)	0.135 µM (active)	2.96 µM (inactive)	1.87 µM (inactive)	1.81 µM (inactive)	0.479 µM (active)	3.5 µM (inactive)	0.194 µM (active)
N#C/N=C(/NCc1ccccc1)N(Cc1ccccc1)Cc1ccccc1	27.6 µM (inactive)	24.8 µM (inactive)	19.8 µM (inactive)	8.13 µM (inactive)	> 10 µM (inactive)	16.4 µM (inactive)	> 10 µM (inactive)	16.4 µM (inactive)	49.1 µM (inactive)	> 31.6 µM (inactive)	14.9 µM (inactive)	23.4 µM (inactive)	28.2 µM (inactive)	16.8 µM (inactive)	32.9 µM (inactive)	22.2 µM (inactive)	> 10 µM (inactive)	27.7 µM (inactive)	19.6 µM (inactive)	22.9 µM (inactive)
COc1c(O)c(O)c2c(c1O)C(=O)c1cc(C)cc(O)c1C2=O	35.2 µM (inactive)	31.6 µM (inactive)	29.2 µM (inactive)	15.3 µM (inactive)	24.5 µM (inactive)	45.9 µM (inactive)	49.2 µM (inactive)	23.1 µM (inactive)	53.8 µM (inactive)	56.5 µM (inactive)	29.9 µM (inactive)	22.8 µM (inactive)	31.1 µM (inactive)	50 µM (inactive)	75.2 µM (inactive)	30.2 µM (inactive)	22.4 µM (inactive)	> 70.8 µM (inactive)	18.7 µM (inactive)	35.2 µM (inactive)
O=C(Nc1ccccc1)c1cc(S(=O)(=O)N2CCNNC2=O)c(S)cc1Cl	> 100 µM (inactive)	95.3 µM (inactive)		> 100 µM (inactive)	> 100 µM (inactive)	> 100 µM (inactive)	> 100 µM (inactive)	> 100 µM (inactive)	> 100 µM (inactive)		> 100 µM (inactive)	> 100 µM (inactive)	> 100 µM (inactive)	> 100 µM (inactive)	> 100 µM (inactive)	> 100 µM (inactive)	> 100 µM (inactive)	21.3 µM (inactive)	> 100 µM (inactive)	33.9 µM (inactive)
O=C(O)c1ccc(/N=C(\C(=N\c2ccc(C(=O)O)cc2)c2ccccc2)c2ccccc2)cc1	> 100 µM (inactive)	> 100 µM (inactive)	> 100 µM (inactive)	> 100 µM (inactive)	> 100 µM (inactive)	> 100 µM (inactive)	> 100 µM (inactive)	> 100 µM (inactive)	> 100 µM (inactive)	> 100 µM (inactive)		> 100 µM (inactive)	> 100 µM (inactive)		> 100 µM (inactive)	> 100 µM (inactive)	> 100 µM (inactive)	> 100 µM (inactive)	> 100 µM (inactive)	> 100 µM (inactive)
COc1cccc2cc(C(N)=O)c(=N)oc12	42.6 µM (inactive)	58.2 µM (inactive)	48.4 µM (inactive)	31.3 µM (inactive)	49.4 µM (inactive)	50.5 µM (inactive)	> 100 µM (inactive)		42.3 µM (inactive)		49.2 µM (inactive)	46.6 µM (inactive)	65.3 µM (inactive)	58.7 µM (inactive)	41.3 µM (inactive)	51.1 µM (inactive)	29.2 µM (inactive)	70.5 µM (inactive)	37.2 µM (inactive)	90.2 µM (inactive)
COc1cc2c3cc1Oc1c(OC)c(OC)cc4c1C(=NCC4)Cc1ccc(cc1)Oc1cc(ccc1O)C[C@H]3N(C)CC2	15 µM (inactive)	5.74 µM (inactive)	19.1 µM (inactive)	16.7 µM (inactive)	13.5 µM (inactive)	37.5 µM (inactive)	22 µM (inactive)		18.5 µM (inactive)	22.3 µM (inactive)	12.2 µM (inactive)	16.3 µM (inactive)	13.2 µM (inactive)	14 µM (inactive)	13.4 µM (inactive)	22.6 µM (inactive)	23.2 µM (inactive)	10 µM (inactive)	15.6 µM (inactive)	16.3 µM (inactive)
CC(=O)Nc1ccc(Nc2cc(O)nc(O)n2)cc1	> 100 µM (inactive)	> 100 µM (inactive)			> 100 µM (inactive)	> 100 µM (inactive)	> 100 µM (inactive)	> 100 µM (inactive)	> 100 µM (inactive)	> 100 µM (inactive)	> 100 µM (inactive)	> 100 µM (inactive)	> 100 µM (inactive)	> 100 µM (inactive)	> 100 µM (inactive)	> 100 µM (inactive)	> 100 µM (inactive)	> 100 µM (inactive)	> 100 µM (inactive)	> 100 µM (inactive)
Nc1nc(Cc2ccccc2)nc(Cc2ccccc2)c1-c1ccccc1	28.1 µM (inactive)	20.8 µM (inactive)	17.7 µM (inactive)	18 µM (inactive)		33.9 µM (inactive)	26 µM (inactive)	27 µM (inactive)	22.9 µM (inactive)	20.7 µM (inactive)	15.5 µM (inactive)	30.3 µM (inactive)	23.1 µM (inactive)	24 µM (inactive)	46.6 µM (inactive)	31 µM (inactive)	11.4 µM (inactive)	22.6 µM (inactive)	28.2 µM (inactive)	
COc1cc(-c2cc(=O)c3c(OC)c(OC)c(OC)cc3o2)c(OC)c(OC)c1OC	> 75 µM (inactive)	63.1 µM (inactive)	> 75 µM (inactive)	42.5 µM (inactive)	> 75 µM (inactive)	> 75 µM (inactive)		57.3 µM (inactive)	> 75 µM (inactive)	> 75 µM (inactive)	53.7 µM (inactive)	> 75 µM (inactive)	23.6 µM (inactive)	16.9 µM (inactive)	> 75 µM (inactive)	> 75 µM (inactive)	> 75 µM (inactive)	52.1 µM (inactive)	> 75 µM (inactive)	25 µM (inactive)
O=C1C2Cc3c(n(C(=O)c4ccccc4)c4ccccc34)CC2C(=O)N1c1ccc(Nc2ccc(N3C(=O)C4Cc5c(n(C(=O)c6ccccc6)c6ccccc56)CC4C3=O)cc2)cc1 (centres undefined)	> 100 µM (inactive)	44.4 µM (inactive)	> 100 µM (inactive)	61 µM (inactive)	> 100 µM (inactive)	> 100 µM (inactive)	> 100 µM (inactive)	> 100 µM (inactive)	> 100 µM (inactive)	> 100 µM (inactive)	58.1 µM (inactive)	30.9 µM (inactive)	> 100 µM (inactive)	8.85 µM (inactive)	> 100 µM (inactive)	> 100 µM (inactive)	> 100 µM (inactive)	> 100 µM (inactive)	> 100 µM (inactive)	
O=C1CC(O)c2c(Cl)sc(Cl)c21 (centres undefined)	3.9 µM (inactive)	2.71 µM (inactive)	15.3 µM (inactive)	14.7 µM (inactive)	5.12 µM (inactive)	16.4 µM (inactive)	22.1 µM (inactive)	6.49 µM (inactive)	8.02 µM (inactive)	14.1 µM (inactive)	17.1 µM (inactive)	14.2 µM (inactive)	13.3 µM (inactive)		27.2 µM (inactive)	3.66 µM (inactive)	18.7 µM (inactive)	3.68 µM (inactive)	22.8 µM (inactive)	7.19 µM (inactive)
N#Cc1nc(-c2ccc(-c3nc(C#N)c(N)o3)cc2)oc1N	> 10 µM (inactive)	> 10 µM (inactive)	> 10 µM (inactive)	> 10 µM (inactive)	> 10 µM (inactive)	> 10 µM (inactive)		> 10 µM (inactive)	> 10 µM (inactive)	> 10 µM (inactive)	> 10 µM (inactive)	> 10 µM (inactive)	> 10 µM (inactive)	> 10 µM (inactive)	> 10 µM (inactive)	> 10 µM (inactive)	> 10 µM (inactive)	> 10 µM (inactive)	> 10 µM (inactive)	> 10 µM (inactive)
